The test system of one test is rat smooth muscle cells. Nature of the test: Antiproliferative activity (ri, relative to heparin) in rat smooth muscle cells. Format: cell-based. Also noted: key: growth inhibition relative to heparin at 100 μg/ml, same experiment. Particulars: 100 μg/ml, 48 h, relative to heparin at 100 μg/ml in the same experiment. As to the method:
Antiproliferative Activity
The antiproliferative activity of a substance is expressed as the ri value which is a comparative value to the corresponding activity of heparin and which was determined in cell cultures as follows: rat smooth muscle cells were applied to cell culture plates in a density of 8×10^3 cells/well (medium: DMEM with 10% FCS. Cultivation at 37° C. and 5% CO2). After 4 hours, the number of adhered cells was determined and the substances to be tested (100 μg/ml, dissolved in H2 O) were added. […] Subsequently, the cells were incubated for 48 h. and thereafter the cell count was determined once more.
The inhibition i of the cell growth, that is, the reduction in the growth rate of the cells in percent compared to the control, was calculated from these values. [formula] the growth rate μbeing calculated as [formula] in which Z is the number of cells and d is the time in days.
Finally, ri --the relative inhibitory activity--which expresses the activity of a substance (at 100 μg/ml) in comparison to the activity of heparin in the same concentration in the same experiment, was calculated: [formula] Blood Coagulation Inhibition

For the next test, the target named is T1, Factor Xa (Bos taurus, UniProt P00743).
T1 sequence (P00743 41-180 limits assumed): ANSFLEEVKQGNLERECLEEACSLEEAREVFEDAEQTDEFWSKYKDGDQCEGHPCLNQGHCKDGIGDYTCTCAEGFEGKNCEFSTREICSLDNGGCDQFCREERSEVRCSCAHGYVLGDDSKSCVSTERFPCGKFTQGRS
Nature of the test: Blood coagulation inhibition: inhibition of Factor Xa in the Chromogen Substrate Test. Format: biochemical.

The target in a further test is T2, thrombin (Homo sapiens, UniProt P00734).
T2 construct: purchased Roche Basle (Thrombin Reagent)
Format: biochemical.

Test [1] concerns neointima in rat carotids. Nature of the test: In vivo assay of the antiproliferative activity in damaged rat carotids (neointima). Also noted: species or system rat (male Wistar Kyoto). Particulars: 1 mg/kg/h i.v., p<0.001 t-test. As to the method: In vivo assay for the determination of the antiproliferative activity of the compounds in accordance with the invention in damaged rat carotids
After narcosis, the left carotids of male Wistar Kyoto rats (300-400 g) were damaged with a 2 F embolectomy catheter by drawing the catheter in the pumped-up state three times through the vessel. After wound healing, the animals were kept in pairs with standard feed and water ad libidum.
The compounds were administered in concentrations of 0.3-1 mg/kg/h i.v. For this purpose, during the narcosis an osmotic minipump was implanted into the animals under the dorsal skin and was attached to the jugular vein. Thus, the compounds could be administered constantly during the entire test period of 14 days.
After 14 days proliferative tissue (neointima) had formed, the size of which could be determined morphometrically on histological cross-sections.For this purpose, the rats were sacrificed and perfusion-fixed with glutaraldehyde.

[2] abbreviates: with antithrombin III and plasma, S-2222 substrate; read-out: Anticoagulative Activity IC50 Factor Xa.
The mark [3] stands for this setting: with antithrombin III and plasma, S-2238 substrate, 37° C., pH 8.4; read-out: Anticoagulative Activity IC50 Thrombin.
Where [4] appears, read: read-out: Anticoagulative Activity IC50 Factor Xa; with antithrombin III and plasma, S-2222 substrate.
The mark [5] stands for this setting: read-out: Anticoagulative Activity IC50 Thrombin; with antithrombin III and plasma, S-2238 substrate, 37° C., pH 8.4.
The mark [6] stands for this setting: with antithrombin III and plasma, S-2222 substrate.
Where [7] appears, read: with antithrombin III and plasma, S-2238 substrate, 37° C., pH 8.4.

pIC50: −log10 of the molar value. Where a name gives a salt, the structure may show the parent alone. Read-outs that look alike come from different tables or passages of the source.

The record followed here is patent US5767268A, “Sulfuric acid esters of amino sugars” (Hoffmann-La Roche Inc., priority 1995, dated 1998).

Procedure for Factor Xa: (§1) Inhibition of thrombin or Factor Xa in the Chromogen Substrate Test (Teien et al., Thrombosis Research 10, 399-410 (1977)): The determination was effected in a Cobas-Bio centrifugal automatic spectrophotometer. The buffer solution used consisted of 50 mM Tris buffer, 180 mM NaCl, 7.5 mM EDTA Na2, 1% PEG 6000 and 0.02% Tween 80, pH 8.4. The test solution consisted of 50 μl of buffer, 30 μl of antithombin III (1U/ml, Kabi Diagnostica) and 20 μl of plasma which contained various concentrations of test compounds. 30 μl of sample solution and 20 μl of water with 180 μl of thrombin (1U/ml, Thrombin Reagent Roche Basle) were added to the test cuvette in the automatic analyzer. After incubation at 37° C. for 240 seconds, 60 μl of S-2238 (H-D-Phe-Pip-Arg-NH.pNA, Kabi Diagnostica, Mondal, Sweden, 0.75 mM in water) and 20 μl of water were added. The liberation of pNA (p-nitro-aniline) was followed during 60 seconds at 405 nm in 10 second intervals in comparison to water as the blank.
The inhibition of Factor Xa was measured in the same manner using a solution of Factor Xa (2.8 nkat/ml and 2 mM S-2222 (Bz-CO-Ile-Glu-Arg-NH.pNA, Kabi Diagnostica) in water in place of thrombin and, respectively, S-2238.
Procedure for thrombin: as §1

`O=C(N[C@H]1[C@@H](OCc2ccccc2)O[C@H](CNC(=O)[C@H](OS(=O)(=O)O)[C@@H](OS(=O)(=O)O)[C@H](OS(=O)(=O)O)[C@@H](COS(=O)(=O)O)OS(=O)(=O)O)[C@@H](OS(=O)(=O)O)[C@@H]1OS(=O)(=O)O)c1ccc(-c2ccc(C(=O)N[C@H]3[C@@H](OCc4ccccc4)O[C@H](CNC(=O)[C@H](OS(=O)(=O)O)[C@@H](OS(=O)(=O)O)[C@H](OS(=O)(=O)O)[C@@H](COS(=O)(=O)O)OS(=O)(=O)O)[C@@H](OS(=O)(=O)O)[C@@H]3OS(=O)(=O)O)cc2)cc1` [Example 14, Biphenyl-4,4'-dicarboxylic acid bis-[[benzyl 2,6-didesoxy-3,4-di-O-sulfo-6-(2,3,4,5,6-penta-O-sulfo-D-gluconoylamino)-a-D-glucopyranosid-2-yl]-amide] tetradecasodium salt]: the “Antiproliferative Activity ri (relative inhibitory activity versus heparin)” value in the test with rat smooth muscle cells was found to be 1.2. For the same compound, the pIC50 on Factor Xa (setting [2]) and on thrombin (setting [3]) was below 3.35 each time. Also, in test [1], the “cross-sectional area of the neointima in rat carotids 14 days after balloonisation” value is “significantly reduced”.
As to `O=C(N[C@H]1[C@@H](OCc2ccccc2)O[C@H](CNC(=O)[C@H](OS(=O)(=O)O)[C@@H](OS(=O)(=O)O)[C@H](OS(=O)(=O)O)[C@@H](COS(=O)(=O)O)OS(=O)(=O)O)[C@@H](OS(=O)(=O)O)[C@@H]1OS(=O)(=O)O)c1cccc(C(=O)N[C@H]2[C@@H](OCc3ccccc3)O[C@H](CNC(=O)[C@H](OS(=O)(=O)O)[C@@H](OS(=O)(=O)O)[C@H](OS(=O)(=O)O)[C@@H](COS(=O)(=O)O)OS(=O)(=O)O)[C@@H](OS(=O)(=O)O)[C@@H]2OS(=O)(=O)O)c1` [Example 24, Isophthalic acid bis-[[benzyl 2,6-didesoxy-6-(2,3,4,5,6-penta-O-sulfo-D-gluconoylamino)-3,4-di-O-sulfo-a-D-gluco-pyranosid-2-yl]-amide] tetradecasodium salt], in test [1], the “cross-sectional area of the neointima in rat carotids 14 days after balloonisation” value is “significantly reduced”.
On to `CN(C[C@H](OS(=O)(=O)O)[C@@H](OS(=O)(=O)O)[C@H](OS(=O)(=O)O)[C@@H](COS(=O)(=O)O)OS(=O)(=O)O)c1ccc(C(=O)N[C@H]2[C@@H](OCc3ccccc3)O[C@H](CNC(=O)c3cccc(C(=O)NC[C@H]4O[C@H](OCc5ccccc5)[C@H](NC(=O)c5ccc(N(C)C[C@H](OS(=O)(=O)O)[C@@H](OS(=O)(=O)O)[C@H](OS(=O)(=O)O)[C@@H](COS(=O)(=O)O)OS(=O)(=O)O)c([N+](=O)[O-])c5)[C@@H](OS(=O)(=O)O)[C@@H]4OS(=O)(=O)O)c3)[C@@H](OS(=O)(=O)O)[C@@H]2OS(=O)(=O)O)cc1[N+](=O)[O-]` [Example 35, Isophthalic acid bis-[[benzyl 2,6-didesoxy-2-[4-[methyl (2,3,4,5,6-penta-O-sulfo-D-glucit-1-yl)-amino]-3-nitro-benzoylamino]-3,4-di-O-sulfo-a-D-glucopyranosid-6-yl]-amide] tetradecasodium salt], for which the “Antiproliferative Activity ri (relative inhibitory activity versus heparin)” value in the test on rat smooth muscle cells is reported as 2.5. Moreover, the pIC50 on Factor Xa (setting [4]) and on thrombin (setting [5]) was below 3.39 throughout.
For the compound `O=C(NC[C@H]1O[C@H](OCc2ccccc2)[C@H](NC(=O)c2ccc(N(CCOS(=O)(=O)O)C[C@H](OS(=O)(=O)O)[C@@H](OS(=O)(=O)O)[C@H](OS(=O)(=O)O)[C@@H](COS(=O)(=O)O)OS(=O)(=O)O)c([N+](=O)[O-])c2)[C@@H](OS(=O)(=O)O)[C@@H]1OS(=O)(=O)O)c1cccc(C(=O)NC[C@H]2O[C@H](OCc3ccccc3)[C@H](NC(=O)c3ccc(N(CCOS(=O)(=O)O)C[C@H](OS(=O)(=O)O)[C@@H](OS(=O)(=O)O)[C@H](OS(=O)(=O)O)[C@@H](COS(=O)(=O)O)OS(=O)(=O)O)c([N+](=O)[O-])c3)[C@@H](OS(=O)(=O)O)[C@@H]2OS(=O)(=O)O)c1` [Example 36, Isophthalic acid bis-[[benzyl 2,6-didesoxy-2-[4-[(2-hydroxysulfonyloxy-ethyl)-2,3,4,5,6-penta-O-sulfo-D-glucit-1-yl)-amino]-3-nitro-benzoylamino]-3,4-di-O-sulfo-a-D-glucopyranosid-6-yl]-amide] hexadecasodium salt], the “Antiproliferative Activity ri (relative inhibitory activity versus heparin)” value in the test on rat smooth muscle cells was 2.1. In addition, the pIC50 on Factor Xa (setting [4]) and at thrombin (setting [5]) was below 3.43 each time.
As to `CC(=O)Nc1cc(C(=O)N[C@H]2[C@@H](OCc3ccccc3)O[C@H](CNC(=O)c3cccc(C(=O)NC[C@H]4O[C@H](OCc5ccccc5)[C@H](NC(=O)c5ccc(N(C)C[C@H](OS(=O)(=O)O)[C@@H](OS(=O)(=O)O)[C@H](OS(=O)(=O)O)[C@@H](COS(=O)(=O)O)OS(=O)(=O)O)c(NC(C)=O)c5)[C@@H](OS(=O)(=O)O)[C@@H]4OS(=O)(=O)O)c3)[C@@H](OS(=O)(=O)O)[C@@H]2OS(=O)(=O)O)ccc1N(C)C[C@H](OS(=O)(=O)O)[C@@H](OS(=O)(=O)O)[C@H](OS(=O)(=O)O)[C@@H](COS(=O)(=O)O)OS(=O)(=O)O` [Example 37, Isophthalic acid bis-[[benzyl 2-[3-acetylamino-4-[methyl-(2,3,4,5,6-penta-O-sulfo-D-glucit-1-yl)-amino]-benzoylamino]-2,6-didesoxy-3,4-di-O-sulfo-a-D-glucopyranosid-6-yl]-amide] tetradecasodium salt], the “Antiproliferative Activity ri (relative inhibitory activity versus heparin)” value in the test on rat smooth muscle cells came out at 1.9. Besides, the pIC50 at Factor Xa (setting [2]) and on thrombin (setting [3]) was below 3.40 in each case.
`CC(=O)Nc1cc(C(=O)N[C@H]2[C@@H](OCc3ccccc3)O[C@H](CNC(=O)c3cccc(C(=O)NC[C@H]4O[C@H](OCc5ccccc5)[C@H](NC(=O)c5ccc(N(CCOS(=O)(=O)O)C[C@H](OS(=O)(=O)O)[C@@H](OS(=O)(=O)O)[C@H](OS(=O)(=O)O)[C@@H](COS(=O)(=O)O)OS(=O)(=O)O)c(NC(C)=O)c5)[C@@H](OS(=O)(=O)O)[C@@H]4OS(=O)(=O)O)c3)[C@@H](OS(=O)(=O)O)[C@@H]2OS(=O)(=O)O)ccc1N(CCOS(=O)(=O)O)C[C@H](OS(=O)(=O)O)[C@@H](OS(=O)(=O)O)[C@H](OS(=O)(=O)O)[C@@H](COS(=O)(=O)O)OS(=O)(=O)O` [Example 38, Isophthalic acid bis-[[benzyl 2-[3-acetylamino-4-[(2,3,4,5,6-penta-O-sulfo-D-glucit-1-yl)-(2-sulfonyloxy-ethyl)-amino]-benzoylamino]-2,6-didesoxy-3,4-di-O-sulfo-a-D-glucopyranosid-6-yl]-amide] hexadecasodium salt]: the “Antiproliferative Activity ri (relative inhibitory activity versus heparin)” value in the test on rat smooth muscle cells is on record as 1.8. For the same compound, the pIC50 at Factor Xa (setting [4]) and on thrombin (setting [5]) was below 3.43 each time.
For “Biphenyl-4,4'-dicarboxylic acid bis-[[(Z)-benzyl 2,6-didesoxy-3,4-di-O-sulfo-6-(3-desoxy-2,4,5,6-tetra-0-sulfo-D-erythro-hex-2-enonoylamino)-a-D-glucopyranosid-2-yl]-amide] dodecasodium salt [Example 15]”, in the test on rat smooth muscle cells, the “Antiproliferative Activity ri (relative inhibitory activity versus heparin)” value was 1.8. For the same compound, the “Anticoagulative Activity IC50 Factor Xa” value at Factor Xa (setting [6]) was above 1000 µg/mL. Also, the “Anticoagulative Activity IC50 Thrombin” value on thrombin (setting [7]) was above 1000 µg/mL.
Take Heparin [reference compound]: the “Antiproliferative Activity ri (relative inhibitory activity versus heparin)” value in the test with rat smooth muscle cells amounted to 1.0. Moreover, on Factor Xa (setting [6]), the “Anticoagulative Activity IC50 Factor Xa” value was 2.7 µg/mL. For the same compound, at thrombin (setting [7]), the “Anticoagulative Activity IC50 Thrombin” value turned out to be 1.9 µg/mL.

What is called pIC50 is the negative decadic logarithm of the IC50, by convention in mol/L.
